# Laboratory results as given in PMC3525754 (Biochemistry, 2012).
# Legend:
# [1] = molecular target: T1, DrPRODH (proline dehydrogenase from Deinococcus radiodurans R1) (Deinococcus radiodurans, UniProt Q9RW55); test: steady-state CoQ1 reduction, absorbance […] nm; format: biochemical
# [2] = molecular target: T1, DrPRODH (proline dehydrogenase from Deinococcus radiodurans R1); test: X-ray crystal structure, […] Å; format: binding; conditions: oxidized enzyme complexed with THFA; two ribityl conformations
# [3] = molecular target: T1, DrPRODH (proline dehydrogenase from Deinococcus radiodurans R1); test: X-ray crystal structure, […] Å; format: binding; conditions: crystal reduced by soaking in 50 mM sodium dithionite
# T1 sequence (Q9RW55 whole entry): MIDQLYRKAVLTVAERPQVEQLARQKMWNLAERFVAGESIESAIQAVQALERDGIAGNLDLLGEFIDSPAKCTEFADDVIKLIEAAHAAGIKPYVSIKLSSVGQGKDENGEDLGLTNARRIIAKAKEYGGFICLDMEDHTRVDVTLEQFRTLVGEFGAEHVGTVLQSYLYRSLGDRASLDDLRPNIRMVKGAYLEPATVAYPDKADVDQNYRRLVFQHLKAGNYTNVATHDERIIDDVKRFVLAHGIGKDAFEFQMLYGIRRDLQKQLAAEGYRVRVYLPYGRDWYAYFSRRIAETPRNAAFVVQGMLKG
compound,measurement,setting,value
O=C(O)[C@@H]1CCCO1 [THFA],Ki,[1],38 mM
Cc1cc2nc3c(=O)[nH]c(=O)nc-3n(C[C@H](O)[C@H](O)[C@H](O)COP(=O)(O)OP(=O)(O)OC[C@H]3O[C@@H](n4cnc5c(N)ncnc54)[C@H](O)[C@@H]3O)c2cc1C [FAD],"X-ray crystal structure, 1.36 Å",[2],The oxidized flavin exhibits two conformations
Cc1cc2c(cc1C)N(C[C@H](O)[C@H](O)[C@H](O)COP(=O)(O)OP(=O)(O)OC[C@H]1O[C@@H](n3cnc4c(N)ncnc43)[C@H](O)[C@@H]1O)c1[nH]c(=O)[nH]c(=O)c1N2 [reduced FAD],"X-ray crystal structure, 1.75 Å",[3],The reduced flavin of DrPRODHr exhibits just one ribityl conformation
